Laboratory results as given in patent US20040086536A1, “Therapeutic agents and treatment kits for hypertrophic pyloric stenosis” (priority 2002, published 2004).
Where a name gives a salt, the structure may show the parent alone.

How the values were obtained:
[1] = system: hypertrophic pyloric stenosis; experiment: Treatment of infantile patients with hypertrophic pyloric stenosis (disappearance of vomiting, hospitalization); conditions: atropine sulfate 0.1 mg/kg/day iv.
Procedure: In the present treating examples, a solution for intravenous injection of atropine sulfate was used as the anticholinergic agent and a nitroglycerin patch was used as the NO donor.
After confirming that the pH and electrolytes in the blood restore in the normal ranges in individual infantile patients, a daily dosage of atropine sulfate (0.1 mg/kg/day) was divided by the number of milk feeding and the divided dosage of atropine sulfate was administered intravenously 10 minutes before each milk feeding over 3 minutes or longer. Except in the cases where abnormally strong side effects were produced, the dosage amounts for subsequent intravenous injections were not changed principally. […] The minimum dosage amount is 0.04 mg/kg/day.
In parallel with the atropine sulfate intravenous injection, a nitroglycerin transdermal patch (Millisrol Tape (registered trademark)): 5 mg/patch: Nippon Kayaku Co., Ltd.; or Minitro Tape (registered trademark): 5 mg/patch: Nisshin-Kyorin Pharmaceutical Co., Ltd.) was used. […]
To prevent the occurrence of aspiration pneumonia induced by vomiting and the induction of contraction of gastric smooth muscles and pyloric sphincters, isotonic drinking solution was fed orally as the infantile patient wanted until the vomiting subsided. […] The body weight and the daily amount of milk intake were measured every day. […]

[2] = system: hypertrophic pyloric stenosis; conditions: cited from earlier work

CN1[C@@H]2CC[C@H]1C[C@@H](OC(=O)C(CO)c1ccccc1)C2 (some centres unmarked) [atropine sulfate (iv.), atropine sulfate]
Duration of vomiting (onset of action) after the initiation of the treatment [1]: 5 ± 2 days
duration of hospitalization [1]: 9 ± 2 days
time for which the spasm disappears after the administration ([2]; atropine sulfate therapy, contraction of the pyloric muscle often reappears afterward): 20 to 30 min
effectiveness of treatment ([2]; intravenous injection, needs long term hospitalization): high
effectiveness rate of treatment ([2]; oral administration): less than 50%
